Data: patent publication US12054494B2, “Compound with anticancer activity” (KYOWA KIRIN CO., LTD., priority 2018, dated 2024)

system: MYC mRNA expression in SU-DHL-4 cells; test: Suppressive effect on MYC mRNA expression (qRT-PCR); assay type: cell-based; conditions: test compound 100 nmol/L, 6 hours
Experimental: Suppressive Effect on MYC mRNA Expression
SU-DHL-4 cells were cultured at 37° C. using a carbon dioxide gas incubator (95% air, 5% CO2) in RPMI1640 medium in which FBS in an amount to give a final concentration of 10 vol % and PS in an amount to give a final concentration of 1 vol % were added. The cells were passaged twice a week at a volume of 20-40 mL so as to maintain a cell concentration of 1×10^6 cells/mL or less.
The cultured SU-DHL-4 cells were seeded at 6×10^5 cells/well in a transparent 6-well plate (Code No. 140675, Thermo Fisher Scientific). After seeding, the cells were precultured at 37° C. in a carbon dioxide gas incubator for 18 to 25 hours. Next, a 0.1 mmol/L DMSO solution of the test compound was prepared, diluted so that the concentration will be 200 times the final concentration in the RPMI1640 medium containing the above FBS and PS, and 1/200 volume of the diluted solution was added to each well. At this time, the final concentration of DMSO was adjusted to be 0.1 vol %. After adding the test compound, the cells were cultured at 37° C. in a carbon dioxide gas incubator for 6 hours.
Then, the cells were collected by centrifugation and used for extraction of mRNA. mRNA extraction from cells was performed using Maxwell® 16 LEV simplyRNA Purification Kits (Code No. AS1270, Promega). The mRNA recovery protocol was performed according to the manufacturer's recommended protocol attached to the kit.
0.001 mg of the recovered mRNA was converted to cDNA by SuperScript IV VILO Master Mix with ezDNase Enzyme (Code No. 11766050, Thermo Fisher Scientific). The cDNA conversion was performed, according to the manufacturer's recommended protocol attached to the kit, in 0.020 mL of the reaction solution, and GeneAmp® PCR System 9700 (Applied Biosystems) was used. The cDNA-converted sample was diluted 10-fold by adding 0.180 mL of RNase Free Water (Code No. 10977-023, Thermo Fisher Scientific) and used for quantitative real-time polymerase chain reaction (qRT-PCR). For the calibration curve of qRT-PCR, 0.08 mL of RNase Free Water was added to a cDNA sample using DMSO as a test compound for 5-fold dilution. Further, two 5-fold dilutions were prepared stepwise, and these three samples were used as the calibration curve samples.
The following reagents were used for qRT-PCR: TaqMan Gene Expression Assays, Inventoried (Primer probe: Code No. 4331182, Thermo Fisher Scientific, Assay ID: (i) MYC: Hs00153408_m1, (ii) ACTB: Hs01060665_g1, (iii) GAPDH: Hs04420697_g1, (iv) HPRT1: Hs02800695_m1); 2X TaqManR Fast Universal PCR Master Mix, no AmpEraseR UNG (Master Mix: Code No. 4367846, Thermo Fisher Scientific).
Primer probe (0.001 mL), Master Mix (0.010 mL), water (0.004 mL) and the diluted cDNA sample (0.005 mL) were mixed, and qRT-PCR analysis was performed. For qRT-PCR analysis, QuantStudio 7 Flex (Thermo Fisher Scientific) or 7500 Fast Real-Time PCR (Applied Biosystems) was used to measure in Fast mode and analyze. The expression level of the MYC gene was determined by quantifying ACTB, GAPDH, and HPRT1 as housekeeping genes and correcting by the following formula to calculate the suppression rate of (%) of MYC mRNA expression when the test compound was allowed to act at a concentration of 100 nmol/L. Corrected MYC expression=A/B • A: MYC expression level • B: Geometric mean of expression levels of ACTB, GAPDH and HPRT1
Using the corrected values, the suppression rate of MYC expression for the wells to which […] was calculated by the following formula. Suppression rate of MYC expression (%)=100−C/D×100 • C: Corrected MYC expression level in a well containing test compound • D: Corrected MYC expression level in a well to which test compound was not added

| Compound | Suppression rate of MYC mRNA expression [%] |
| --- | --- |
| CCC(=O)N1c2ccccc2[C@H](Nc2ccc(NC(=O)CCCC(=O)Nc3ccc(Cn4c(C(=O)OCCN(C)C)cc5c4CCCC5=O)cc3)cc2)C[C@@H]1C [Compound 15a, 2-(Dimethylamino)ethyl 1-(4-(5-((4-(((2S,4R)-2-methyl-1-propionyl-1,2,3,4-tetrahydroquinolin-4-yl)amino)phenyl)amino)-5-oxopentanamide)benzyl)-4-oxo-4,5,6,7-tetrahydro-1H-indole-2-carboxylate] | 97.6 |
| CCC(=O)N1c2ccccc2[C@H](Nc2ccc(C(=O)NCCCNC(=O)c3ccc(C4=N[C@@H](CC(=O)OCCCOC)c5nnc(C)n5-c5sc(C)c(C)c54)cc3)cc2)C[C@@H]1C [Compound 13h, 3-Methoxypropyl 2-((S)-2,3,9-trimethyl-4-(4-((3-(4-(((2S,4R)-2-methyl-1-propionyl-1,2,3,4-tetrahydroquinolin-4-yl)amino)benzamide)propyl)carbamoyl)phenyl)-6H-thieno[3,2-f][1,2,4]triazolo[4,3-a][1,4]diazepin-6-yl)acetate] | 97.4 |
| CCC(=O)N1c2ccccc2[C@H](Nc2ccc(NC(=O)CNC(=O)N[C@H]3CC[C@H](N[C@@H]4C[C@H](C)N(C(=O)CC)c5ccccc54)CC3)cc2)C[C@@H]1C [Compound 8j, 2-(3-((1R,4R)-4-(((2S,4R)-2-Methyl-1-propionyl-1,2,3,4-tetrahydroquinolin-4-yl)amino)cyclohexyl)ureido)-N-(4-(((2S,4R)-2-methyl-1-propionyl-1,2,3,4-tetrahydroquinolin-4-yl)amino)phenyl)acetamide] | 97.2 |
| Cc1sc2c(c1C)C(c1ccc(Cl)cc1)=N[C@@H](CC(=O)NCCOCCOCCOCCOCCOCCOCCOCCNC(=O)C[C@@H]1N=C(c3ccc(Cl)cc3)c3c(sc(C)c3C)-n3c(C)nnc31)c1nnc(C)n1-2 [compound 2, reference compound] | 57.7 |
| CCC(=O)N1c2ccccc2[C@H](Nc2ccc(C(=O)NCCCNC(=O)c3ccc(C4=N[C@@H](CC(=O)OC5CCC(O)CC5)c5nnc(C)n5-c5sc(C)c(C)c54)cc3)cc2)C[C@@H]1C (stereo partly drawn) [Compound 13d, 4-Hydroxycyclohexyl 2-((S)-2,3,9-trimethyl-4-(4-((3-(4-(((2S,4R)-2-methyl-1-propionyl-1,2,3,4-tetrahydroquinolin-4-yl)amino)benzamide)propyl)carbamoyl)phenyl)-6H-thieno[3,2-f][1,2,4]triazolo[4,3-a][1,4]diazepin-6-yl)acetate] | 97.2 |
| CCC(=O)N1c2ccccc2[C@H](Nc2ccc(C(=O)N3CC(C(=O)N[C@H]4CC[C@H](N[C@@H]5C[C@H](C)N(C(=O)CC)c6ccccc65)CC4)C3)cc2)C[C@@H]1C [Compound 8r, 1-(4-(((2S,4R)-2-Methyl-1-propionyl-1,2,3,4-tetrahydroquinolin-4-yl)amino)benzoyl)-N-((1R,4R)-4-(((2S,4R)-2-methyl-1-propionyl-1,2,3,4-tetrahydroquinolin-4-yl)amino)cyclohexyl)azetidine-3-carboxamide] | 96.7 |
| CCC(=O)N1c2ccccc2[C@H](N[C@H]2CC[C@H](NC(=O)C#CCNC(=O)[C@H]3CC[C@H](N[C@@H]4C[C@H](C)N(C(=O)CC)c5ccccc54)CC3)CC2)C[C@@H]1C (relative stereo) [Compound 9d, (1R,4R)-4-(((2S*,4R*)-2-Methyl-1-propionyl-1,2,3,4-tetrahydroquinolin-4-yl)amino)-N-(4-(((1R,4R)-4-(((2S,4R)-2-methyl-1-propionyl-1,2,3,4-tetrahydroquinolin-4-yl)amino)cyclohexyl)amino)-4-oxobut-2-yn-1-yl)cyclohexane-1-carboxamide] | 98.0 |
| CCC(=O)N1c2ccccc2[C@H](Nc2ccc(NC(=O)C#CCNC(=O)C3CCC(N[C@@H]4C[C@H](C)N(C(=O)CC)c5ccccc54)CC3)cc2)C[C@@H]1C (relative stereo) [Compound 8g, (1R,4r)-4-(((2S*,4R*)-2-Methyl-1-propionyl-1,2,3,4-tetrahydroquinolin-4-yl)amino)-N-(4-((4-(((2S,4R)-2-methyl-1-propionyl-1,2,3,4-tetrahydroquinolin-4-yl)amino)phenyl)amino)-4-oxobut-2-yn-1-yl)cyclohexane-1-carboxamide] | 96.6 |
| CCC(=O)N1c2ccccc2[C@H](Nc2ccc(Cn3cc(C(=O)Nc4ccc(N[C@@H]5C[C@H](C)N(C(=O)CC)c6ccccc65)cc4)nn3)cc2)C[C@@H]1C [Compound 5j, 1-(4-(((2S,4R)-2-Methyl-1-propionyl-1,2,3,4-tetrahydroquinolin-4-yl)amino)benzyl)-N-(4-(((2S,4R)-2-methyl-1-propionyl-1,2,3,4-tetrahydroquinolin-4-yl)amino)phenyl)-1H-1,2,3-triazolee-4-carboxamide] | 96.8 |
| CCC(=O)N1c2ccccc2[C@H](Nc2ccc(NC(=O)CCCC(=O)NC3CCN(Cc4cc(O)cc(-c5c(C)noc5C)c4)CC3)cc2)C[C@@H]1C [Compound 12c, N^1-(1-(3-(3,5-Dimethylisoxazol-4-yl)-5-hydroxybenzyl)piperidinyl)-N^5-(4-(((2S,4R)-2-methyl-1-propionyl-1,2,3,4-tetrahydroquinolin-4-yl)amino)phenyl)glutaramide] | 97.8 |
| CCC(=O)N1c2ccccc2[C@H](Nc2ccc(-c3nnc(CNC(=O)[C@H]4CC[C@H](N[C@@H]5C[C@H](C)N(C(=O)CC)c6ccccc65)CC4)o3)cc2)C[C@@H]1C [Compound 7q, (1R,4R)-4-(((2S,4R)-2-Methyl-1-propionyl-1,2,3,4-tetrahydroquinolin-4-yl)amino)-N-((5-(4-(((2S,4R)-2-methyl-1-propionyl-1,2,3,4-tetrahydroquinolin-4-yl)amino)phenyl)-1,3,4-oxadiazol-2-yl)methyl)cyclohexane-1-carboxamide] | 97.4 |
| CCC(=O)N1c2ccccc2[C@H](Nc2ccc(NC(=O)N3CCN(C(=O)C4CCC(N[C@@H]5C[C@H](C)N(C(=O)CC)c6ccccc65)CC4)CC3)cc2)C[C@@H]1C (stereo partly drawn) [Compound 7p, 4-((1R,4r)-4-(((2S,4R)-2-Methyl-1-propionyl-1,2,3,4-tetrahydroquinolin-4-yl)amino)cyclohexane-1-carbonyl)-N-(4-(((2S,4R)-2-methyl-1-propionyl-1,2,3,4-tetrahydroquinolin-4-yl)amino)phenyl)piperazine-1-carboxamide] | 97.9 |
| CCC(=O)N1c2ccccc2[C@H](Nc2ccc(C(=O)NCCNS(=O)(=O)c3ccc(N[C@@H]4C[C@H](C)N(C(=O)CC)c5ccccc54)cc3)cc2)C[C@@H]1C [Compound 4d, 4-{[(2S,4R)-2-Methyl-1-propionyl-1,2,3,4-tetrahydroquinolin-4-yl]amino}-N-{2-[(4-{[(2S,4R)-2-methyl-1-propionyl-1,2,3,4-tetrahydroquinolin-4-yl]amino}phenyl)sulfonamide]ethyl}benzamide] | 98.3 |
| CCC(=O)N1c2ccccc2[C@H](Nc2ccc(CCC(=O)NCC3(NC4CCC(N[C@@H]5C[C@H](C)N(C(=O)CC)c6ccccc65)CC4)COC3)cc2)C[C@@H]1C (some centres unmarked) [Compound 7h] | 97.5 |
